Reference: patent US20220243249A1, “ANTAGONISTS OF CAMKII-DELTA 9 AND USES THEREOF” (PEKING UNIVERSITY, priority 2019, published 2022)
Peptide text beside a SMILES is read from it. * marks the point of attachment. Cbz = O=C(OCc1ccccc1)*

Experiments:
CaMKII-δ9 = CaMKII-δ9 protein level, phosphorylation and oxidation in NRVMs under stress; type: cell-based, rat; conditions: for expression of CaMKII-δ9 (protein): Dox 1 μM or H2O2 200 μM, 24 h
Description: NRVMs were isolated from 1-day-old Sprague-Dawley rats, and adenovirus-mediated gene transfer was implemented using methods described previously (Zhang, T. et al., Nature medicine 22, 175-182, doi: 10.1038/nm.4017 (2016)). […]
(§1) Western blot and co-immunoprecipitation were performed as previously described (Zhang, T. et al., Nature medicine 22, 175-182, doi:10.1038/nm.4017 (2016)).

UBE2T [1] = experiment: UBE2T protein level by western blot in NRVMs; type: cell-based, rat; conditions: for CaMKII-δ9-induced reduction of the UBE2T protein level: β-lac 5 μM, MG132 10 μM
Description: NRVMs were isolated from 1-day-old Sprague-Dawley rats, and adenovirus-mediated gene transfer was implemented using methods described previously (Zhang, T. et al., Nature medicine 22, 175-182, doi: 10.1038/nm.4017 (2016)). NRVMs were exposed to H2O2 (200 μM) or Dox (1 μM) for 24 h.
as §1

UBE2T [2] = experiment: Immunostaining of myc-tagged UBE2T location in NRVMs; type: cell-based, rat; set-up: dose or concentration left out as unconfirmed
Description: (§2) Cardiomyocyte immunofluorescence was measured as previously described (Erickson, J. R. et al., Physiological reviews 91, 889-915, doi:10.1152/physrev.00018.2010 (2011)).

NRVMs = experiment: DNA damage by γH2AX and comet assay in NRVMs; type: cell-based, rat; conditions: β-lac 5 μM, MG132 10 μM
Description: Cultured neonatal rat ventricular cardiomyocytes (NRVMs) were treated as indicated, and then washed with cold PBS, following the protocol of the comet assay kit (Trevigen, Cat #: 4250-050-K) under alkaline conditions. Mean tail moments were quantified for 300-500 cells per sample in each experiment, with Comet Assay Software Project (v1.2.3b1).
as §2

exon 16 of CaMKII-δ = experiment: Transverse aortic constriction (TAC) in CaMKII-δ9 shRNA transgenic mice; type: in vivo, mouse
Description: Transverse aortic constriction (TAC) was performed in 6-week-old male mice. Mice were anesthetized under 3% isoflurane via intubation, the chest was opened, the aortic arch was visualized, and a 7-0 silk suture was passed under the arch between the innominate and left common carotid arteries. The suture was secured around both the aorta and a 28-gauge needle, the needle was removed, the chest was closed, and the mouse was extubated. Sham-operated mice underwent an identical procedure except for the aortic ligation. Mice were given buprenorphine via intraperitoneal injection during recovery.
The sequence of miR30-based CaMKII-δ9 shRNA was 5′-[…] […]-3′ (SEQ ID NO: 37). The shRNA with an N-terminal EGFP tag and C-terminal BGH poly A sequences was cloned into the pLKO.1 plasmid containing the U6 promoter. After linearization, gel-purification was performed. This construct was microinjected into the pronuclei of fertilized C57BL/6J mouse eggs. PCR was used for genotyping. The primer sequences were 5′-[…]-3′ (forward) (SEQ ID NO: 38) and 5′-[…]-3′ (reverse) (SEQ ID NO: 39).
Echocardiographic analysis using a Vevo2100 digital imaging system (Visual Sonics, Toronto, ON, Canada) was performed under 1% isoflurane at 6 and 10 weeks of age, with mid-ventricular M and B mode measurements acquired in the parasternal short-axis view at the level of the papillary muscles. Once the mice were acclimated to the procedures, images were stored in digital format on a magnetic optical disk for review and analysis. Measurements of the LV internal end-diastolic diameter (LVIDd) were made at the time of apparent maximal LV diastolic dimension, while measurements of the LV internal end-systolic diameter (LVIDs) were taken at the time of the most anterior systolic excursion of the posterior wall. LV ejection fraction (EF) was calculated by the cubic method: LVEF (%)={(LVIDd)^3−(LVIDs)^3}/(LVIDd)^3×100, and LV fractional shortening (FS) was calculated by FS (%)=(LVIDd−LVIDs)/LVIDd×100. The data were averaged from 5 cardiac cycles.
Histological analysis of heart tissue was as previously described (Zhang, T. et al. Nature medicine 22, 175-182, doi: 10.1038/nm.4017 (2016)). The CardioTACS™ in situ apoptosis detection kit (Roche Applied Science, Cat #: 11684795910) was used for TUNEL staining as previously described (Zhang, T. et al. Nature medicine 22, 175-182, doi:10.1038/nm.4017 (2016)).

COc1cccc2c1C(=O)c1c(O)c3c(c(O)c1C2=O)C[C@@](O)(C(=O)CO)C[C@@H]3O[C@H]1C[C@H](N)[C@H](O)[C@H](C)O1 [Doxorubicin]
expression of CaMKII-δ9 (protein) (CaMKII-δ9): significantly elevated | oxidation level of CaMKII-δ9 (CaMKII-δ9; Dox 1 μM, 30 and 60 min): increased | phosphorylation level of CaMKII-δ9 (CaMKII-δ9; Dox 1 μM, 30 and 60 min): increased

OO [H2O2]
expression of CaMKII-δ9 (protein) (CaMKII-δ9): significantly elevated | UBE2T protein level (UBE2T [1]; NRVMs, western blot): decreased

CC(C)C[C@@H](C=O)NC(=O)[C@H](CC(C)C)NC(=O)[C@H](CC(C)C)NC(=O)OCc1ccccc1 [MG132] (Cbz-Leu-Leu-Leu-aldehyde)
CaMKII-δ9-induced reduction of the UBE2T protein level (UBE2T [1]): fully abolished | subcellular location of UBE2T (UBE2T [2]): present in both the nuclear and cytosolic compartments | CaMKII-δ9-mediated γH2AX upregulation (NRVMs): block

CC(C)[C@H](O)[C@@]12NC(=O)[C@H](C)[C@@H]1OC2=O [β-lac, clasto-lactacystin β-lactone]
CaMKII-δ9-induced reduction of the UBE2T protein level (UBE2T [1]): fully abolished | CaMKII-δ9-mediated γH2AX upregulation (NRVMs): block

B1: CaMKII-δ9 shRNA: miR30-based CaMKII-δ9 shRNA (SEQ ID NO: 37) targeting exon 16, expressed transgenically in mice (nucleic acid)
DNA: GAAGGTATATTGCTGTTGACAGTGAGCGCAATCCACAACCCTGACGGAAATAGTGAAGCCACAGATGTATTTCCGTCAGGGTTGTGGATTATGCCTACTGCCTCGG
TAC-induced cardiac DNA damage (γH2AX) (exon 16 of CaMKII-δ; 4 weeks after TAC surgery): reduced | TAC-induced cardiac hypertrophy (exon 16 of CaMKII-δ; 4 weeks after TAC surgery): markedly attenuated | TAC-induced cardiomyocyte death (TUNEL) (exon 16 of CaMKII-δ; 4 weeks after TAC surgery): reduced | TAC-induced contractile dysfunction (EF, FS) (exon 16 of CaMKII-δ; 4 weeks after TAC surgery): markedly attenuated | cardiac UBE2T protein abundance (exon 16 of CaMKII-δ; 4 weeks after TAC surgery): augmented | TAC-induced premature death (exon 16 of CaMKII-δ; Kaplan-Meier survival): markedly attenuated
